According to patent publication US20260373497A1, “MOLECULAR MACHINES STIMULATE INTERCELLULAR CALCIUM WAVES AND CAUSE MUSCLE CONTRACTION” (William Marsh Rice University, priority 2022, published 2026):
Entries after “also recorded” stand apart in the source; their conditions may differ.

Experiments:
N2A cells = assay: MM-induced calcium responses in N2A cells; format: cell-based; details: 400 nm, 250 ms, 3.2×10^2 W cm^−2
Excerpt: FIGS. 11A & 11B—ICW in N2A cells after stimulation with MM 1 and light. (a) Confocal images of N2A cells treated with MM 1 (blue) and calcium tracking dye (Fluo-4; green). The white circle in the top-left image depicts the area to which stimulus was delivered. The scale bar is 50 μm and applies to all images. (b) Fluo-4 fluorescence traces of N2A cells treated with MM 1 and stimulated with 250 ms pulse of 400 nm light delivered to a 5 μm diameter circular region of interest at 3.2×10^2 W cm^−2 stimulation power.
(§1) Cell Culture and Preparation of Cells for Microscopy: HEK293 cells were chosen as the principal model system due to their prevalence in electrophysiological interrogation. […] HEK293 cells, HeLa cells, and N2A cells were cultured in DMEM (10% FBS, 1% penicillin/streptomycin) and passaged at <90% confluence. […]
(§2) In Vitro Imaging and Stimulation: Cells were loaded in a Nikon A1-Rsi confocal system mounted on a widefield Ti-E fluorescence microscope. […] Laser stimulation for in vitro experiments was performed with a 400 nm photodiode laser (Coherent OBIS™ LX SF) operating in a fluorescence-recovery-after-photobleaching (FRAP) experiment mode, delivering up to 6.4×10^2 W cm^−2 at sample level. […] Fluo-4 fluorescence was collected for 30 s before and 2 min after stimulation. […]

HeLa cells = assay: MM-induced calcium responses in HeLa cells; format: cell-based; details: 400 nm, 250 ms, 3.2×10^2 W cm^−2
Excerpt: FIGS. 12A & 12B—ICW in HeLa cells after stimulation with MM 1 and light. (a) Confocal images of HeLa cells treated with MM 1 (blue) and Fluo-4 calcium tracking dye (green). The white circle in the bottom-left image depicts the area to which light stimulus was delivered. Scale bar is 50 μm and applies to all images. (b) Fluo-4 fluorescence traces of HeLa cells treated with MM 1 and stimulated with 250 ms pulse of 400 nm light delivered to a 5 μm diameter circular region of interest at 3.2×10^2 W cm^−2 stimulation power.
as §1, §2

[1] = test system: primary rat cardiomyocytes; assay: Spiking, beating and contraction of primary cardiomyocytes after MM stimulation; format: cell-based
C2C12 myoblasts [2] = assay: ROS generation (CellROX green) in C2C12 myoblasts; format: cell-based, mouse; details: MM 1 + light
Procedure: Additionally, to further confirm that the cellular calcium release is not the result of a photodynamic effect caused by reactive oxygen species (ROS) generation, ROS generation was measured from each MM using the ROS sensitive dye CellROX green. CellROX fluoresces when oxidized by ROS in living cells and can be used to measure general oxidative stress in cells due to ROS generation. […] To confirm that the ROS generated by MM 1 was not causing intracellular calcium release, cells were treated with a combination of thiourea (TU, 50 mM) and [COMPOUND LEFT OUT] (SA, 1.25 mM) to scavenge the ROS that were produced. […] If ROS generation by MM 1 was the cause of calcium release, then less calcium release would be expected with treatment of ROS scavengers.

C2C12 myoblasts [3] = assay: MM-induced calcium release in C2C12 cells (Fluo-4); format: cell-based, mouse; details: MM 1, 1 s instead of 500 ms

## CC1Cc2ccc3ccccc3c2C1=C1c2ccccc2Sc2cc(NCCN(C)C)ccc21 (stereo not drawn) [MM 1]
N2A cells
  Calcium responses induced by MM 1 actuation: also observed
HeLa cells
  Calcium responses induced by MM 1 actuation: also observed
[1]; 400 nm, 250 ms, 5.1×10^2 W cm^−2
  Contraction / beating of cardiomyocytes: local contraction in the stimulated cell; also recorded: periodic beating in the stimulated cell and surrounding cell
[1]; MM 1 + light in presence of U-73 10 μM, P<0.0001
  Firing rate of cardiomyocytes: ~ 0.8 spikes min^−1 cell^−1
[1]; MM 1 + light, absence of extracellular calcium
  Spiking activity of cardiomyocytes: did not exhibit any spiking activity
[1]; MM 1 + light, calcium-containing medium
  Firing rate of cardiomyocytes: 5.1 spikes min^−1 cell^−1
C2C12 myoblasts [2]; CellROX green
  ROS generation: generated more ROS than the DMSO negative control but less ROS than positive controls
C2C12 myoblasts [2]; with thiourea-containing scavenger combination (1× and 0.2×)
  ROS generation with scavenger combination: decrease in ROS generation
C2C12 myoblasts [3]
  Calcium release at longer stimulation: larger calcium release
